Earlier results, collected in patent US20080132413A1, “Methods for the Improvement of Plant Tolerance Towards Glyphosate” (Bayer Cropscience AG, priority 2004, published 2008).

System: glyphosate-resistant cotton (Roundup Ready Cotton)

O=[N+]([O-])/N=C1\NCCN1Cc1ccc(Cl)nc1 [imidacloprid]
increase in buds compared to a control not treated with imidacloprid (glyphosate treatment at the 4 leaf stage, after 45 days): 18%
sum of the counts of buds and bolls versus untreated control (glyphosate treatment at the 4 leaf stage, after 62 days): matched that of the untreated control
minus of buds compared to the control not treated with imidacloprid (glyphosate treatment at the 6 leaf stage, after 40 days): 14%
sum of the counts of buds and bolls (yield) greater than that of the untreated control (glyphosate treatment at the 6 leaf stage, after 57 days): about 14%
